The experiment deals with Dephosphorylated BTK (Homo sapiens, UniProt Q06187). Nature of the experiment: Test of activity inhibition against dephosphorylated BTK (mobility shift assay).

Each structure is given as a SMILES string.

Drawing on patent publication US20150011751A1, “NOVEL TRIAZINE DERIVATIVE” (CARNA BIOSCIENCES, INC., priority 2012, published 2015), this text covers IC50 for 26 molecules.

As usually defined, the IC50 is the concentration that gives 50% inhibition.

Dephosphorylated BTK, sequence (Q06187 whole entry): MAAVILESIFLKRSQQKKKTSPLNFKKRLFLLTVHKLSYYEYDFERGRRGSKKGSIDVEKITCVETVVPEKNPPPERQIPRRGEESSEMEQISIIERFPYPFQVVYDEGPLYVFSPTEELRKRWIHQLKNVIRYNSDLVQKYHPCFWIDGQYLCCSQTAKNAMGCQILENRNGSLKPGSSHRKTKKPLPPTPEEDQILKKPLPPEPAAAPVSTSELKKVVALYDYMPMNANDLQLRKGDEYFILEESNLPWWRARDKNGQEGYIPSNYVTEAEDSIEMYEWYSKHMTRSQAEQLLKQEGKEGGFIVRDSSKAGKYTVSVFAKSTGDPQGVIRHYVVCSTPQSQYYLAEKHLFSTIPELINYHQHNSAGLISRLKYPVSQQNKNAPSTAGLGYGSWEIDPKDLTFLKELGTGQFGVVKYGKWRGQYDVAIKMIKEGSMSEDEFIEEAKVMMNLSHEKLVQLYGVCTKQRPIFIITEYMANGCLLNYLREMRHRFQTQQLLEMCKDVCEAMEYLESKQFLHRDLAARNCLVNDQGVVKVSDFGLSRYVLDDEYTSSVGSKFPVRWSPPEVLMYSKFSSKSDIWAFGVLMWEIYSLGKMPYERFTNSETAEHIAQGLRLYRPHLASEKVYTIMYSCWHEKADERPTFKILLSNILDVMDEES

For `CC(C)(C)c1ccc(C(=O)Nc2cccc(-c3nc(N)nc(Nc4ccc(N5CCS(=O)(=O)CC5)cc4)n3)c2CO)cc1` [Example 124, N-[3-(4-Amino-6-{[4-(1,1-dioxidothiomorpho-lino)phenyl]amino}-1,3,5-triazin-2-yl)-2-(hy-droxymethyl)phenyl]-4-(tert-butyl)benzamide], the IC50 was 0.5 nM.
Under `CC(C)(C)c1ccc(C(=O)Nc2cccc(-c3nc(N)nc(Nc4cccc(Cn5cncn5)c4)n3)c2CO)cc1` [Example 162, N-{3-[4-({3-[(1H-1,2,4-Triazol-1-yl)methyl]phenyl}amino)-6-amino-1,3,5-triazin-2-yl]-2-(hydroxymethyl)phe-nyl}-4-(tert-butyl) benzamide] stands 0.5 nM; under `CCN(CC)CCOc1ccc(Nc2nc(N)nc(-c3cccc(NC(=O)c4ccc(C(C)(C)C)cc4)c3CO)n2)cc1` [Example 159, N-{3-[4-Amino-6-({4-[2-(diethylamino)ethoxy]phenyl}amino)-1,3,5-triazin-2-yl]-2-(hy-droxymethyl)phenyl}-4-(tert-butyl)benzamide], 5.9 nM; under `Nc1nc(Nc2ccc(N3CCOCC3)c(F)c2)nc(-c2cccc(N3CCc4cc(C5CC5)cc(F)c4C3=O)c2CO)n1` [Example 242, 2-(3-{4-Amino-6-[(3-fluoro-4-morpholinophe-nyl)amino]-1,3,5-tri-azin-2-yl}-2-(hydroxymeth-yl)phenyl)-6-cyclo-propyl-8-fluoro-3,4-di-hydroisoquinolin-1(2H)-one], 1.5 nM.
Next, `Nc1nc(Nc2ccc(N3CCOC(CO)C3)cc2)nc(-c2cccc(NC(=O)c3cc4c(s3)CCCC4)c2CO)n1` (centres unmarked) [Example 127, N-{3-[4-Amino-6-({4-[2-(hydroxymethyl)morpho-lino]phenyl}amino)-1,3,5-triazin-2-yl]-2-(hydroxymethyl)phenyl}-4,5,6,7-tetrahydro-benzo[b]thiophene-2-carboxamide]: 0.5 nM; `Cc1c(NC(=O)c2ccc(C(C)(C)C)cc2)cccc1-c1ncnc(Nc2ccc(C(=O)NC(CO)CO)cc2)n1` [Example 19, 4-(tert-Butyl)-N-{3-[4-({4-[(1,3-dihydroxypropan-2-yl)carbamoyl]phenyl}amino)-1,3,5-triazin-2-yl]-2-methyl-phenyl}benzamide]: 6.1 nM; `C=CCn1cc(Nc2nc(N)nc(-c3cccc(N4CCc5cc(C6CC6)cc(F)c5C4=O)c3CO)n2)cn1` [Example 274, 2-(3-{4-[(1-Allyl-1H-pyrazol-4-yl)amino]-6-amino-1,3,5-triazin-2-yl}-2-(hydroxymethyl)phenyl)-6-cyclopropyl-8-fluoro-3,4-dihydro-isoquinolin-1(2H)-one]: 1 nM.
Under `CC(C)(C)c1ccc(C(=O)Nc2cccc(-c3nc(N)nc(Nc4ccc(S(=O)(=O)N5CCOCC5)cc4)n3)c2CO)cc1` [Example 204, N-[3-(4-Amino-6-{[4-(morpholinosulfonyl)phe-nyl]amino}-1,3,5-tri-azin-2-yl)-2-(hydroxy-methyl)phenyl]-4-(tert-butyl)benzamide] stands 1.3 nM; under `N#CCc1ccc(Nc2nc(N)nc(-c3cccc(N4CCc5cc(C6CC6)cc(F)c5C4=O)c3CO)n2)cc1` [Example 190, 2-[4-({4-Amino-6-[3-(6-cyclopropyl-8-fluoro-1-oxo-3,4-dihydroiso-quinolin-2(1H)-yl)-2-(hydroxymethyl)phenyl]-1,3,5-triazin-2-yl}amino)phenyl]acetonitrile], 1.4 nM; under `CC(C)(C)c1ccc(C(=O)Nc2cccc(-c3nc(N)nc(Nc4ccc(O)cc4)n3)c2CO)cc1` [Example 65, N-(3-{4-Amino-6-[(4-hy-droxyphenyl)amino]-1,3,5-triazin-2-yl}-2-(hydroxymethyl)phenyl)-4-(tert-butyl)benza-mide], 0.6 nM.
Take `Nc1nc(Nc2ccc(N3CCOCC3)cc2)nc(-c2cccc(NC(=O)c3ccc4c(c3)CCCC4)c2CO)n1` [Example 102, N-(3-{4-Amino-6-[(4-morpholinophenyl)amino]-1,3,5-triazin-2-yl}-2-(hydroxymethyl)phe-nyl)-5,6,7,8-tetrahydro-naphthalene-2-carbox-amide]: the IC50 amounted to 8.7 nM.
In the case of `CC(=O)Nc1ccc(Nc2nc(N)nc(-c3cccc(NC(=O)c4ccc(C(C)(C)C)cc4)c3CO)n2)cc1` [Example 119, N-(3-{4-[(4-Acetamido-phenyl)amino]-6-amino-1,3,5-triazin-2-yl}-2-(hydroxymethyl)phe-nyl)-4-(tert-butyl)benz-amide], the IC50 came out at 0.8 nM.
Next, `CC(C)(C)c1ccc(C(=O)Nc2cccc(-c3nc(N)nc(Nc4ccc(CN5CCOCC5)cc4)n3)c2CO)cc1` [Example 79, N-[3-(4-Amino-6-{[4-(morpho-linomethyl)phe-nyl]amino}-1,3,5-triazin-2-yl)-2-(hydroxymeth-yl)phenyl]-4-(tert-butyl)benzamide]: 0.6 nM.
Regarding `Cc1c(NC(=O)c2ccc(C(C)(C)C)cc2)cccc1-c1ncnc(Nc2ccc(N3CCOCC3)cc2)n1` [Example 24, 4-(tert-Butyl)-N-(2-meth-yl-3-{4-[(4-morpho-linophenyl)amino]-1,3,5-triazin-2-yl}phenyl) benzamide], the concentration for half-maximal inhibition (IC50) came out at 3.4 nM.
Take `COc1cc(Nc2nc(N)nc(-c3cccc(NC(=O)c4ccc(C(C)(C)C)cc4)c3CO)n2)cc(OC)c1OCCCO` [Example 188, N-[3-(4-Amino-6-{[4-(3-hyroxypropoxy)-3,5-dimethoxyphenyl]ami-no}-1,3,5-triazin-2-yl)-2-(hydroxymethyl)phe-nyl]-4-(tert-butyl) benzamide]: the IC50 is 0.4 nM.
As to `CN(CCO)c1ccc(Nc2nc(N)nc(-c3cccc(N4CCc5cc(C6CC6)cc(F)c5C4=O)c3CO)n2)cc1` [Example 246, 2-{3-[4-Amino-6-({4-[(2-hydroxyethyl)(meth-yl)amino]phenyl}amino)-1,3,5-triazin-2-yl]-2-(hydroxymethyl)phe-nyl}-6-cyclopropyl-8-fluoro-3,4-dihydroiso-quinolin-1(2H)-one], the IC50 is 2.7 nM.
Take `CN1CCn2cc(Nc3nc(N)nc(-c4cccc(N5CCc6cc(C7CC7)cc(F)c6C5=O)c4CO)n3)cc2C1=O` [Example 268, 2-(3-{4-Amino-6-[(2-meth-yl-1-oxo-1,2,3,4-tetra-hydropyrrolo[1,2-a]pyrazin-7-yl)amino]-1,3,5-triazin-2-yl}-2-(hydroxymethyl)phe-nyl)-6-cyclopropyl-8-fluoro-3,4-dihydroisoquinolin-1(2H)-one]: the IC50 was 1.2 nM.
Next, `Nc1nc(Nc2ccc(N3CCOCC3)cc2)nc(-c2cccc(N3CCc4c(sc5c4CCCC5)C3=O)c2CO)n1` [Example 227, 2-(3-{4-Amino-6-[(4-morpho-linophenyl)amino]-1,3,5-triazin-2-yl}-2-(hydroxymethyl)phe-nyl)-3,4,5,6,7,8-hexa-hydrobenzo[4,5]thieno [2,3-c]pyridin-1(2H)-one]: 3.5 nM; `CN1CCN(c2ccc(Nc3nc(N)nc(-c4cccc(N5CCc6cc(C7CC7)cc(F)c6C5=O)c4CO)n3)cc2)CC1` [Example 193, 2-[3-(4-Amino-6-{[4-(4-methylpiperazin-1-yl)phenyl]amino}-1,3,5-triazin-2-yl)-2-(hy-droxymethyl)phenyl]-6-cyclopropyl-8-fluoro-3,4-dihydroisoquinolin-1(2H)-one]: 1.1 nM.
On to `CC(C)(C)c1ccc(C(=O)Nc2cccc(-c3nc(N)nc(Nc4ccc(C(N)=O)cc4)n3)c2CO)cc1` [Example 149, N-(3-{4-Amino-6-[(4-carbamoylphenyl)amino]-1,3,5-triazin-2-yl}-2-(hydroxymethyl)phe-nyl)-4-(tert-butyl) benzamide], for which the IC50 turned out to be 0.5 nM.
Next, `CC1(Cn2cc(Nc3nc(N)nc(-c4cccc(N5CCc6cc(C7CC7)cc(F)c6C5=O)c4CO)n3)cn2)CC1` [Example 273, 2-{3-[4-Amino-6-({1-[(1-methylcyclopropyl)methyl]-1H-pyrazol-4-yl}amino)-1,3,5-triazin-2-yl]-2-(hydroxymeth-yl)phenyl}-6-cyclo-propyl-8-fluoro-3,4-di-hydroisoquinolin-1(2H)-one]: 2.4 nM.
Under `CC(C)(C)c1ccc(C(=O)Nc2cccc(-c3nc(N)nc(Nc4ccc(N5CCOCC5)nc4)n3)c2CO)cc1` [Example 174, N-(3-{4-Amino-6-[(6-morpholinopyridin-3-yl)amino]-1,3,5-triazin-2-yl}-2-(hydroxymeth-yl)phenyl)-4-(tert-butyl)benzamide] stands 1.5 nM; under `Nc1nc(Nc2ccc(OCCN3CCOCC3)cc2)nc(-c2cccc(NC(=O)c3cc4c(s3)CCCC4)c2CO)n1` [Example 138, N-[3-(4-Amino-6-{[4-(2-morpholinoethoxy)phe-nyl]amino}1,3,5-tri-azin-2-yl)-2-(hydroxy-methyl)phenyl]-4,5,6,7-tetrahydrobenzo[b]thio-phene-2-carboxamide], 1.7 nM.
Next, `Nc1nc(Nc2ccc(N3CCCC3)cc2)nc(-c2cccc(N3CCc4cc(C5CC5)cc(F)c4C3=O)c2CO)n1` [Example 244, 2-[3-(4-Amino-6-{[4-(pyr-rolidin-1-yl)phenyl]amino}-1,3,5-triazin-2-yl)-2-(hydroxymeth-yl)phenyl]-6-cyclopro-pyl-8-fluoro-3,4-dihy-droisoquinolin-1(2H)-one]: 4.6 nM; `Nc1nc(Nc2ccn(CC3CCOCC3)c2)nc(-c2cccc(N3CCc4cc(C5CC5)cc(F)c4C3=O)c2CO)n1` [Example 254, 2-{3-[4-Amino-6-({1-[(tetra-hydro-2H-pyran-4-yl)methyl]-1H-pyrrol-3-yl}amino)-1,3,5-tri-azin-2-yl]-2-(hydroxy-methyl)phenyl}-6-cyclo-propyl-8-fluoro-3,4-dihydroisoquinolin-1(2H)-one]: 1.4 nM.
`Nc1nc(Nc2ccc(N3CCCC(O)C3)cc2)nc(-c2cccc(NC(=O)c3cc4c(s3)CCCC4)c2CO)n1` (centres unmarked) [Example 143, N-[3-(4-Amino-6-{[4-(3-hydroxypiperidin-1-yl)phenyl]amino}-1,3,5-triazin-2-yl)-2-(hy-droxymethyl)phenyl]-4,5,6,7-tetrahydrobenzo [b]thiophene-2-carbox-amide]: the IC50 turned out to be 0.9 nM.
